Assays:
[1] = test system: HT29; assay: Colony formation assay (CFA), HT29; format: cell-based; details: grown 7-10 days
Procedure: (§1) Cell Viability Determination: For colony formation assay, cells were plated in 6 well plates at 2000 cells per well. Twenty-four hours after plating, cells were treated with compound. Colonies were allowed to develop for 7-10 days, at which they were stained with modified Giemsa stain (Sigma). Stained colonies were then counted to determine IC50.
(§2) Compounds 5 [as shown in Example 1], 3 [as shown in Example 1], 7-1[as shown in Example 1], 10-2 [as shown in Example 3], 10-1 [as shown in Example 2], and 13-1 [as shown in Example 4] were tested for their ability to inhibit cell growth and promote cell death using the colony formation assay (CFA). Cells were treated for either 6 or twenty-four hours with the indicated compounds, and then allowed to grow for an additional 7-10 days. Cells were then stained, and colonies counted to determine IC-50 values.
(§3) Similarly, Compound 10-2 [as shown in Example 3] was tested against a wide range of cancer cell lines.

[2] = test system: MDA-MB-231; assay: Colony formation assay (CFA), MDA-MB-231; format: cell-based; details: grown 7-10 days
Procedure: as §1, §2

[3] = test system: FaDu; assay: Colony formation assay (CFA), FaDu; format: cell-based; details: Homo sapiens, treated 6 or 24 hours, grown 7-10 days
Procedure: as §1, §2, §3

[4] = test system: Hoechst side population of SW480 cells; assay: Colony formation assay, Hoechst side population vs non-side population; format: cell-based; details: colony formation assays, FIG. 4B
Procedure: as §1
Hoechst Side Population: SW480 cells were removed from the culture dish with trypsin and ethylenediaminetetraacetic acid (“EDTA”), pelleted by centrifugation, washed with phosphate-buffered saline (PBS), and resuspended at 37° C. in Dulbecco's modified Eagle's medium (DMEM) containing 2% FBS and 1 mM 4-(2-hydroxyethyl)-1-piperazineethanesulfonic acid (HEPES). The cells were then labeled with Hoechst 33342 (Invitrogen) at a concentration of 5 μg/mL. The labeled cells were incubated for 120 minutes at 37° C., either alone or with 50 μM verapamil (Sigma-Aldrich, St. Louis). After staining, the cells were suspended in Hanks' balanced saline solution (HBSS; Invitrogen) containing 2% FBS and 1 mM HEPES, passed a through 40 μm mesh filter, and maintained at 4° C. until flow cytometry analysis. The Hoechst dye was excited at 350 nm, and its fluorescence was measured at two wavelengths using a 450 DF10 (450/20 nm band-pass filter) and a 675LP (675 nm long-pass edge filter) optical filter. […]

[5] = test system: SW480 cells; assay: Hoechst side population staining of SW480 cells; format: cell-based; details: treated before Hoechst staining (50 μM), FIG. 4A
Procedure: Hoechst Side Population: SW480 cells were removed from the culture dish with trypsin and ethylenediaminetetraacetic acid (“EDTA”), pelleted by centrifugation, washed with phosphate-buffered saline (PBS), and resuspended at 37° C. in Dulbecco's modified Eagle's medium (DMEM) containing 2% FBS and 1 mM 4-(2-hydroxyethyl)-1-piperazineethanesulfonic acid (HEPES). The cells were then labeled with Hoechst 33342 (Invitrogen) at a concentration of 5 μg/mL. The labeled cells were incubated for 120 minutes at 37° C., either alone or with 50 μM verapamil (Sigma-Aldrich, St. Louis). After staining, the cells were suspended in Hanks' balanced saline solution (HBSS; Invitrogen) containing 2% FBS and 1 mM HEPES, passed a through 40 μm mesh filter, and maintained at 4° C. until flow cytometry analysis. The Hoechst dye was excited at 350 nm, and its fluorescence was measured at two wavelengths using a 450 DF10 (450/20 nm band-pass filter) and a 675LP (675 nm long-pass edge filter) optical filter. The gating on forward and side scatter was not stringent, and only debris was excluded (Goodell et al., 1996 J Exp Med 183, 1797-806).
SW480 cells were stained with Hoechst. The side population (shown in FIG. 4A, upper left panel gated area) was sorted out to enrich the cancer stem cells. […]

[6] = test system: FaDu xenograft tumors; assay: Spherogenesis of cells from treated FaDu xenograft tumors; format: in vivo, mice; details: daily po for four days; carboplatin 30 mg/kg, 10-2 100 mg/kg; spheres after 10-14 days
Procedure: In addition, we also tested if compound 10-2 can target cancer stem cells in vivo. Six-week-old female athymic nu/nu mice were obtained from Charles River Labs (Wilmington, Mass.). Mice were injected subcutaneously on the flank with 6×10^6 FaDu cancer cells in 0.2 mL of serum-free DMEM. After xenografts reached ˜200 mm^3 in size, animals bearing FaDu xenograft tumors were administered daily with either vehicle, carboplatin (30 mg/kg), or compound 10-2 (100 mg/kg) via po for four days before sacrifice. Tumors were then collected for FaDu cells. Single cell suspensions were obtained following animal sacrifice, and sterile removal of tumors. Briefly, tumors were minced with sterile scalpels into 0.1 mm^3 pieces before being digested in 1 mg/mL collagenase/HBSS for 15-30 minutes with constant agitation. Following passage through a 40 μm mesh filter, RBCs, dead cells, and cell debris were removed by layering the cell suspension onto 1 mL of Histopaque and collecting interface layer after centrifugation at 1440×g for 30 minutes. Live cells were then counted and used to measure their ability to form spheres. […] Fresh media was added every three days, and sphere formation was determined after 10-14 days in culture. Spheres with >50 cells were scored. […]

[7] = Homo sapiens, HT-29, treated 6 or 24 hours
[8] = Homo sapiens, MDA-MB-231, treated 6 or 24 hours

| IC50 [1, 7] [nM] | IC50 [2, 8] [nM] | SMILES | further results |
| --- | --- | --- | --- |
|  |  | Cc1nc(-c2ccc3c(c2)CC(=O)N3)cs1 [Compound 3] | IC50 ([1]; treated 6 or 24 hours): 50000 to 300000 nM; IC50 ([2]; treated 6 or 24 hours): 50000 to 300000 nM |
| 1500 to 3000 | 800 to 1500 | Cc1[nH]c(/C=C2\C(=O)Nc3ccc(-c4csc(-c5ccccc5)n4)cc32)c(C)c1C(=O)N1CCN(C)CC1 [Compound 10-1] |  |
| 400 to 800 | 100 to 250 | Cc1[nH]c(/C=C2\C(=O)Nc3ccc(-c4csc(-c5cccnc5)n4)cc32)c(C)c1C(=O)N1CCN(C)CC1 [Compound 13-1] |  |
|  |  | CCN(CC)CCNC(C)c1c(C)[nH]c(/C=C2\C(=O)Nc3ccc(-c4csc(-c5cccnc5)n4)cc32)c1C (stereo not drawn) [Compound 13-2] | IC50 [3]: 300 to 400 nM |
|  |  | COc1cccc2c1C(=O)c1c(O)c3c(c(O)c1C2=O)C[C@@](O)(C(=O)CO)C[C@@H]3O[C@H]1C[C@H](N)[C@H](O)[C@H](C)O1 [Doxorubicin] | side population relative to non-side population [4]: more resistant |
|  |  | COc1ccc(CCN(C)CCCC(C#N)(c2ccc(OC)c(OC)c2)C(C)C)cc1OC (stereo not drawn) [Verapamil] | effect on Hoechst side population [5]: loss of the side population |
|  |  | N.N.O=C([O-])C1(C(=O)[O-])CCC1.[Pt+2] [carboplatin] | spherogenesis of tumor cells after in vivo treatment [6]: unchanged spherogenesis |

| SMILES | IC50 [1, 7] [nM] | IC50 [2, 8] [nM] | further results |
| --- | --- | --- | --- |
| Cc1nc(-c2ccc3c(c2)/C(=C/c2[nH]c(C)c(C(=O)N4CCN(C)CC4)c2C)C(=O)N3)cs1 [Compound 7-1] | 6000 to 10000 | 6000 to 10000 |  |

— patent US8299106B2, “Compositions of kinase inhibitors and their use for treatment of cancer and other diseases related to kinases” (Boston Biomedical, Inc., priority 2007, dated 2012)
